From patent EP4596537A1, “NOVEL FLUORENE DERIVATIVE COMPOUND AND USE THEREOF” (JD Bioscience Inc., priority 2022, dated 2024) come the findings set out here.

A value given as a limit tells only on which side of the number the result lay.

This assay relates to PDHE1α S293. Put plainly: In vitro PDH S293 phosphorylation inhibition (Western blot) in HEK293 cells. The assay is classed as cell-based, human. Particulars: Homo sapiens, 5 hours. On the procedure:
HEK293 cells, which are human embryonic kidney cells, were seeded at a density of 2 × 10^6 in a 60 mm dish, and cultured for 24 hours. After replacing the medium with a medium comprising 0.5% FBS, the compounds prepared according to Examples 1 to 54 were treated at various concentrations. 5 hours later, the cells were scraped off and collected into a 15 mL conical tube and centrifuged at 1500 rpm for 10 minutes. The supernatant was discarded, the resultant was washed with 1× PBS, and transferred to a 1.5 mL e-tube, followed by centrifugation at 10,000 rpm for 5 minutes. The supernatant was discarded again, a lysis buffer was added, and the cells were lysed on ice for 30 minutes. The cells were vortexed every 10 minutes to completely lyse, and centrifuged again at 10,000 rpm for 15 minutes at 4°C, and the supernatant was collected. The protein in the supernatant was quantified using BCA technique, and the sample buffer was added to 20 µg of protein and allowed to react at 70°C for 5 minutes. The expression of PDHE1α S232, S293, S300, and total PDHE1α proteins was detected by Western blot, and the resulting PDH S293 phosphorylation inhibition is shown in Table 6. […]
(In general: In western blotting, separated proteins are transferred to a membrane and probed.)
In general, inhibition refers to the percentage by which the read-out fell short of the control. A lower inhibition goes with a response near the control. In turn, `COc1cc(-c2cnn(C(C)C(=O)NNc3ccc(F)cc3)c2)c2c(c1)C(O)(C(F)(F)F)c1ccccc1-2` (centres unmarked) [Example 2, N'-(4-fluorophenyl)-2-(4-(9-hydroxy-2-methoxy-9-(trifluoromethyl)-9H-fluoren-4-yl)-1H-pyrazol-1-yl)propanehydrazide] gave an inhibition at 1 µM not below 50%.

As for `CC(C(=O)NNc1ccc(S(C)(=O)=O)cc1F)n1cc(-c2cc(F)cc3c2-c2ccccc2C3(O)C(F)(F)F)cn1` (centres unmarked) [Example 3, N'-(2-fluoro-4-(methylsulfonyl)phenyl)-2-(4-(2-fluoro-9-hydroxy-9-(trifluoromethyl)-9H-fluoren-4-yl)-1H-pyrazol-1-yl)propanehydrazide], the inhibition at 1 µM was not below 50%.

Compound `CC(C(=O)NNc1ccccc1)n1cc(-c2cc(F)cc3c2-c2ccccc2C3(O)C(F)(F)F)cn1` (centres unmarked) [Example 4, 2-(4-(2-fluoro-9-hydroxy-9-(trifluoromethyl)-9H-fluoren-4-yl)-1H-pyrazol-1-yl)-N'-phenylpropanehydrazide] yielded an inhibition at 1 µM not below 80%.

Turning to `CC(C(=O)NNc1cccc2ccccc12)n1cc(-c2cc(F)cc3c2-c2ccccc2C3(O)C(F)(F)F)cn1` (centres unmarked) [Example 5, 2-(4-(2-fluoro-9-hydroxy-9-(trifluoromethyl)-9H-fluoren-4-yl)-1H-pyrazol-1-yl)-N'-(naphthalen-1-yl)propanehydrazide], the inhibition at 1 µM is not below 50%.

Regarding `CC(C(=O)NNc1ccccc1Cl)n1cc(-c2cc(F)cc3c2-c2ccccc2C3(O)C(F)(F)F)cn1` (centres unmarked) [Example 6, N'-(2-chlorophenyl)-2-(4-(2-fluoro-9-hydroxy-9-(trifluoromethyl)-9H-fluoren-4-yl)-1H-pyrazol-1-yl)propanehydrazide], the inhibition at 1 µM was not below 50%.

On to `CC(C(=O)NNc1ccc(Cl)cc1)n1cc(-c2cc(F)cc3c2-c2ccccc2C3(O)C(F)(F)F)cn1` (centres unmarked) [Example 7, N'-(4-chlorophenyl)-2-(4-(2-fluoro-9-hydroxy-9-(trifluoromethyl)-9H-fluoren-4-yl)-1H-pyrazol-1-yl)propanehydrazide], for which the inhibition at 1 µM is not below 50%.

`CC(C(=O)NNc1ccccn1)n1cc(-c2cc(F)cc3c2-c2ccccc2C3(O)C(F)(F)F)cn1` (centres unmarked) [Example 8, 2-(4-(2-fluoro-9-hydroxy-9-(trifluoromethyl)-9H-fluoren-4-yl)-1H-pyrazol-1-yl)-N'-(pyridin-2-yl)propanehydrazide] displayed an inhibition at 1 µM not below 80%.

`COc1cc(-c2cnn(C(C)C(=O)NNc3ccc(S(C)(=O)=O)cc3F)c2)c2c(c1)C(O)(C(F)(F)F)c1ccccc1-2` (centres unmarked) [Example 9, N'-(2-fluoro-4-(methylsulfonyl)phenyl)-2-(4-(9-hydroxy-2-methoxy-9-(trifluoromethyl)-9H-fluoren-4-yl)-1H-pyrazol-1-yl)propanehydrazide] registered an inhibition at 1 µM not below 80%.

As to `COc1cc(-c2cnn(C(C)C(=O)NNc3ccc(Cl)cc3)c2)c2c(c1)C(O)(C(F)(F)F)c1ccccc1-2` (centres unmarked) [Example 10, N'-(4-chlorophenyl)-2-(4-(9-hydroxy-2-methoxy-9-(trifluoromethyl)-9H-fluoren-4-yl)-1H-pyrazol-1-yl)propanehydrazide], the inhibition at 1 µM is not below 50%.

Take `COc1cc(-c2cnn(C(C)C(=O)NNc3cccc4ccccc34)c2)c2c(c1)C(O)(C(F)(F)F)c1ccccc1-2` (centres unmarked) [Example 11, 2-(4-(9-hydroxy-2-methoxy-9-(trifluoromethyl)-9H-fluoren-4-yl)-1H-pyrazol-1-yl)-N'-(naphthalen-1-yl)propanehydrazide]: the inhibition at 1 µM is not below 50%.

In turn, `COc1cc(-c2cnn(C(C)C(=O)NNc3ccccc3Cl)c2)c2c(c1)C(O)(C(F)(F)F)c1ccccc1-2` (centres unmarked) [Example 12, N'-(2-chlorophenyl)-2-(4-(9-hydroxy-2-methoxy-9-(trifluoromethyl)-9H-fluoren-4-yl)-1H-pyrazol-1-yl)propanehydrazide] returned an inhibition at 1 µM not below 50%.
